{
  "source": "patent EP0402852A1",
  "about": "“Irreversible bombesin antagonists” (priority 1989, dated 1990)",
  "key": {"bombesin receptors": {"target": "T1, bombesin receptors (Mus musculus, UniProt P21729)", "T1 construct": "bombesin receptors was determined on mouse Swiss 3T3 fibroblasts; endogenous in cells; host or cells: mouse Swiss 3T3 fibroblasts", "T1 sequence (P21729 whole entry)": "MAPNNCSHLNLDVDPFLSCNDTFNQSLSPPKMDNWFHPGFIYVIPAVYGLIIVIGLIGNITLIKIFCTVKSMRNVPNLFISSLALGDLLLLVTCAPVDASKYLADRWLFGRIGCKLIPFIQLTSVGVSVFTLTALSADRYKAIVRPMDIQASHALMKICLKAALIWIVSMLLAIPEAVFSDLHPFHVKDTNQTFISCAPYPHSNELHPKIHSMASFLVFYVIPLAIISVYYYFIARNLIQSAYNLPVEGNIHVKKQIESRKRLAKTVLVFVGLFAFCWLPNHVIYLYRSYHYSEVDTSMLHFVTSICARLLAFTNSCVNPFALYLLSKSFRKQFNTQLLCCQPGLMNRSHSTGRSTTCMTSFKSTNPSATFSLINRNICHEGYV", "assay": "Binding affinity for the bombesin receptors on mouse Swiss 3T3 fibroblasts", "description": "The binding affinity of the compounds of the present invention for the bombesin receptors was determined on mouse Swiss 3T3 fibroblasts (I. Zachary and E. Rozengurt (1985) Proc. Natl. Acad. Sci. USA, 82, 7616-7620) (Table 1)."}, "[1]": {"tested_on": "p115 protein associated with the bombesin receptor", "assay": "Phosphorylation of the p115 protein (activation of protein-tyrosin kinase)", "format": "cell-based", "description": "Mitogenic effect of bombesin and its analogues were also evaluated as activation of the protein-tyrosin kinase that phosphorylates a 115 KD protein (p115) associated with the bombesin receptor complex (D. Cirillo et al. (1986) Mol.Cell. Biol. 6, 4641- 4649) (Table 3). In addition, exposure to these peptides in the 0.1-50 µM range was associated with significant reduction in the growth of SCLC cell lines (such as NCI-H345, NCI-N592, NCI-H128), as well as of prostatic carcinoma cell lines (such as DU145 and PC3)."}, "[2]": {"tested_on": "mouse Swiss 3T3 fibroblasts", "assay": "Mitogenesis: [H³]thymidine incorporation in quiescent, confluent Swiss 3T3 cells", "format": "cell-based", "conditions": "for FOLD INCREASE OVER BASAL VALUE: [H³]thymidine incorporation, compound alone", "description": "The effect on mitogenesis was determined in quiescent and confluent Swiss 3T3 cells maintained in serum free medium (A.N.Corps et al (1985) Biochem J. 231, 781-785). In a first set of experiments, analogues are given alone or in combination with bombesin. In a second set of experiments, cells are pre-treated with the alkylating peptides, washed, left at 37°C for 24 hours and then challenged with bombesin. In both cases, DNA synthesis was evaluated as [H³]thymidine incorporation (Table 2)."}, "[3]": {"conditions": "binding affinity on mouse Swiss 3T3 fibroblasts"}, "[4]": {"conditions": "binding affinity on mouse Swiss 3T3 fibroblasts, read-out: ID₅₀"}},
  "note": "Like-named read-outs stand apart in the source and are kept apart here. Starred links: 1 amine or outer side, 2 acyl side, 3 side chain; linkers in the order of their positions; H or OH if unused. Non-standard residues stand in square brackets, D forms with d. Residues, ends and D or L forms follow the SMILES beside them. *: point of attachment. X2 = CC(C)C[C@@H](CN[C@@H](CC(C)C)C(N)=O)N*; Carbamoyl(2-ClEt,NO) = O=NN(CCCl)C(=O)*; X1 = O=C(c1ccc(N(CCCl)CCCl)cc1)*; pGlu = O=C1CC[C@@H](C(=O)O)N1; Suc = O=C(CCC(=O)[*:2])[*:1]; Nle = CCCC[C@H](N)C(=O)O; CH2Cl = ClC*",
  "data": [
    {"molecule": "CC(C)C[C@@H](CN[C@@H](CC(C)C)C(N)=O)NC(=O)[C@H](Cc1cnc[nH]1)NC(=O)CNC(=O)[C@@H](NC(=O)[C@H](C)NC(=O)[C@H](Cc1c[nH]c2ccccc12)NC(=O)[C@H](CCC(N)=O)NC(=O)[C@H](CC(N)=O)NC(=O)CNC(=O)[C@H](CC(C)C)NC(=O)[C@H](CCCN=C(N)N)NC(=O)[C@H](CCC(N)=O)NC(=O)[C@@H]1CCC(=O)N1)C(C)C", "note": "[[Leu¹³Ψ(CH₂-NH)Leu¹⁴]BBS, reference compound] ([pGlu]QRLGNQWAVGH-X2)", "values": [
      {"measurement": "IC50", "setting": "bombesin receptors", "value": "214 ± 30", "unit": "nM"}
    ]},
    {"molecule": "Glp-Gln-Arg-Leu-Gly-Asn-Gln-Trp-Ala-Val-Gly-His-Leu-Met-NH₂ [BBS, reference compound]", "values": [
      {"measurement": "MINIMAL ACTIVE DOSE", "setting": "[1]", "value": 3, "unit": "nM"},
      {"measurement": "ID₅₀", "setting": "bombesin receptors; [3]", "value": "12.6 ± 3.8", "unit": "nM"},
      {"measurement": "FOLD INCREASE OVER BASAL VALUE", "setting": "[2]; 5nM", "value": "3.0±1"}
    ]},
    {"molecule": "4-(ClCH₂CH₂)₂NC₆H₄CO-Thr-Gln-Trp-Ala-Val-Gly-His(Dnp)-Leu-Met-NH₂ (TQWAVGH; N-mustard benzoyl; His(Dnp)-Leu-Met-NH2; printed: Thr-Gln-Trp-Ala-Val-Gly-His) [III]", "values": [
      {"measurement": "MINIMAL ACTIVE DOSE", "setting": "[1]", "value": 500, "unit": "nM"},
      {"measurement": "ID₅₀", "setting": "bombesin receptors; [3]", "value": "1815 ± 330", "unit": "nM"},
      {"measurement": "% INHIBITION IN THE PRESENCE OF 25nM BBS", "setting": "[2]; A: analogues given in combination with BBS, 0.5µM", "value": 0, "unit": "%"},
      {"measurement": "% INHIBITION IN THE PRESENCE OF 25nM BBS", "setting": "[2]; A: analogues given in combination with BBS, 5 µM", "value": 0, "unit": "%"},
      {"measurement": "% INHIBITION IN THE PRESENCE OF 25nM BBS", "setting": "[2]; B: cells pre-treated with analogues, washed, left at 37°C for 24 h, then challenged with BBS, 0.5µM", "value": "51±11", "unit": "%"},
      {"measurement": "% INHIBITION IN THE PRESENCE OF 25nM BBS", "setting": "[2]; B: cells pre-treated with analogues, washed, left at 37°C for 24 h, then challenged with BBS, 5 µM", "value": "53+8%"},
      {"measurement": "FOLD INCREASE OVER BASAL VALUE", "setting": "[2]; 0.5µM", "value": 2.3},
      {"measurement": "FOLD INCREASE OVER BASAL VALUE", "setting": "[2]; 5 µM", "value": 3.4}
    ]},
    {"molecule": "CSCC[C@H](NC(=O)[C@H](CC(C)C)NC(=O)CNC(=O)[C@@H](NC(=O)[C@H](C)NC(=O)[C@H](Cc1c[nH]c2ccccc12)NC(=O)[C@H](CCC(N)=O)NC(=O)[C@@H](NC(=O)c1ccc(N(CCCl)CCCl)cc1)[C@@H](C)O)C(C)C)C(N)=O", "note": "[I, 4-(ClCH₂CH₂)₂NC₆H₄CO-Thr-Gln-Trp-Ala-Val-Gly-Leu-Met-NH₂] (X1-TQWAVGLM-NH2)", "values": [
      {"measurement": "IC50", "setting": "bombesin receptors", "value": "1360 ± 266", "unit": "nM"}
    ]},
    {"molecule": "CCCC[C@H](NC(=O)CCC(=O)N[C@H](C(=O)N[C@@H](CCC(N)=O)C(=O)N[C@@H](Cc1c[nH]c2ccccc12)C(=O)N[C@@H](C)C(=O)N[C@H](C(=O)NCC(=O)N[C@@H](CC(C)C)C(=O)N[C@@H](CCSC)C(N)=O)C(C)C)[C@@H](C)O)C(=O)CCl", "note": "[VI, CH₃(CH₂)₃CH(COCH₂Cl)NHCO(CH₂)₂CO-Thr-Gln-Trp-Ala-Val-Gly-Leu-Met-NH₂] ({CH2Cl-Nle-Suc}-TQWAVGLM-NH2)", "values": [
      {"measurement": "IC50", "setting": "bombesin receptors; [4]", "value": "648 ± 290", "unit": "nM"}
    ]},
    {"molecule": "CCCC[C@H](NC(=O)[C@H](CC(C)C)NC(=O)CNC(=O)[C@@H](NC(=O)[C@H](C)NC(=O)[C@H](Cc1c[nH]c2ccccc12)NC(=O)[C@H](CCC(N)=O)NC(=O)[C@@H](NC(=O)N(CCCl)N=O)[C@@H](C)O)C(C)C)C(N)=O", "note": "[V, ClCH₂CH₂N(NO)CO-Thr-Gln-Trp-Ala-Val-Gly-Leu-Nle-NH₂] ({Carbamoyl(2-ClEt,NO)}-TQWAVGL[Nle]-NH2)", "values": [
      {"measurement": "IC50", "setting": "bombesin receptors", "value": "1340 ± 199", "unit": "nM"}
    ]},
    {"molecule": "CSCC[C@H](NC(=O)[C@H](CC(C)C)NC(=O)[C@H](Cc1c[nH]cn1)NC(=O)CNC(=O)[C@@H](NC(=O)[C@H](C)NC(=O)[C@H](Cc1c[nH]c2ccccc12)NC(=O)[C@H](CCC(N)=O)NC(=O)[C@@H](NC(=O)c1ccc(N(CCCl)CCCl)cc1)[C@@H](C)O)C(C)C)C(N)=O", "note": "[IV, 4-(ClCH₂CH₂)₂NC₆H₄CO-Thr-Gln-Trp-Ala-Val-Gly-His-Leu-Met-NH₂]", "values": [
      {"measurement": "IC50", "setting": "bombesin receptors", "value": "0.7 ± 0.2", "unit": "nM"}
    ]},
    {"molecule": "Spantide [reference compound]", "values": [
      {"measurement": "MINIMAL ACTIVE DOSE", "setting": "[1]", "value": "> 10000", "unit": "nM"},
      {"measurement": "IC50", "setting": "bombesin receptors; [4]", "value": 11100, "unit": "nM"}
    ]},
    {"molecule": "CCCC[C@H](NC(=O)[C@H](CC(C)C)NC(=O)CNC(=O)[C@@H](NC(=O)[C@H](C)NC(=O)[C@H](Cc1c[nH]c2ccccc12)NC(=O)[C@H](CCC(N)=O)NC(=O)[C@@H](NC(=O)c1ccc(N(CCCl)CCCl)cc1)[C@@H](C)O)C(C)C)C(N)=O", "note": "[II, 4-(ClC₂CH₂)₂NC₆H₄CO-Thr-Gln-Trp-Ala-Val-Gly-Leu-Nle-NH₂] (X1-TQWAVGL[Nle]-NH2)", "values": [
      {"measurement": "IC50", "setting": "bombesin receptors", "value": "438 ± 111", "unit": "nM"}
    ]}
  ]
}
